From publication PMC10763615, “Identification and engineering of potent cyclic peptides with selective or promiscuous binding through biochemical profiling and bioinformatic data analysis” (RSC Chemical Biology, 2023)
Positions of bridges follow the written chain, without caps; N, C: chain ends. Residues, ends and D or L forms follow the SMILES beside them.

What was measured:
Type in all cases: binding
[1] = target: T1, FGF-R4 ECD (Homo sapiens, UniProt P22455); test: single concentration BLI of crude peptides; details: crude T18 selection 1 (1:1:1) peptides, single concentration BLI (Table S4); read-out: KD (4)
T1 construct: DNA constructs for the extracellular domain (ECD) of human FGF-; HPC4 (C); made in house; host or cells: HEK 293-6E
T1 sequence (P22455 22-369 limits assumed): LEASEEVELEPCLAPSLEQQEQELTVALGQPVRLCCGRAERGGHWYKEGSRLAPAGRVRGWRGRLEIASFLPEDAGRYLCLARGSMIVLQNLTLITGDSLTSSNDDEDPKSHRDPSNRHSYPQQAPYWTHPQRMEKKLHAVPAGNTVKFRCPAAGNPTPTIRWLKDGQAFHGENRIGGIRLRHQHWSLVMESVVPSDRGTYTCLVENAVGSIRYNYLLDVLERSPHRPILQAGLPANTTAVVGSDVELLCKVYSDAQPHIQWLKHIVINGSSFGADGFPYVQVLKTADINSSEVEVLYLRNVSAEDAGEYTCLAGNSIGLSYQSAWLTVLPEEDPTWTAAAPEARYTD
Description: (§1) KD affinity binding measurements were obtained by biolayer interferometry (BLI) instruments (Fortebio Octet HTX, or Sartorius Octet RH16 using either 8 or 16 channel mode.
For single concentration binding experiments, 50 μM peptide stocks in folding buffer were diluted 1:50 in mRNA display selection buffer (PBS pH7.4 supplemented with 0.05% Tween-20 and 0.01% BSA) in either a 96 well black plate, or a 384 well tilted bottom microplate (ForteBio). Biotinylated FGF-R protein was loaded onto Streptavidin-functionalised biosensors (ForteBio) and immersed into ~1 μM peptide to obtain association kinetics curves. Dissociation kinetics curves were obtained by subsequent immersion of ligand-associated loaded sensors into a 1:50 dilution of folding buffer in mRNA display selection buffer. Fitted KD data was adjusted for concentration as determined by UPLC-CAD. […]

[2] = target: T2, FGF-R1C ECD (Homo sapiens, UniProt P11362); test: biochemical; set-up: DNA constructs for the extracellular domain (ECD) of human FGF-; HPC4 (C); made in house; host or cells: HEK 293-6E
T2 sequence (P11362 22-376 limits assumed): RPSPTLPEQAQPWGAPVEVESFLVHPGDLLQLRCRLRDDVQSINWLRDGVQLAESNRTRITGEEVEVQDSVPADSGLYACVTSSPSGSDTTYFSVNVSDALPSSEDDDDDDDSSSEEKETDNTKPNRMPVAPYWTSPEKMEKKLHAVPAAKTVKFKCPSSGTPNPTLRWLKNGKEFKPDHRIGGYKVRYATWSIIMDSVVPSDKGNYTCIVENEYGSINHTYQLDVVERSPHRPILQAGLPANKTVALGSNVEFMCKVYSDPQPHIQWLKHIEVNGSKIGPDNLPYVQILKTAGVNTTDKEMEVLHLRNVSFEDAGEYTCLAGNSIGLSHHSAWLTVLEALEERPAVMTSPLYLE
Description: as §1
(§2) For single concentration binding experiments, 50 μM peptide stocks in folding buffer were diluted 1:50 in mRNA display selection buffer (PBS pH7.4 supplemented with 0.05% Tween-20 and 0.01% BSA) in either a 96 well black plate, or a 384 well tilted bottom microplate (ForteBio). Biotinylated FGF-R protein was loaded onto Streptavidin-functionalised biosensors (ForteBio) and immersed into ~1 μM peptide to obtain association kinetics curves. Dissociation kinetics curves were obtained by subsequent immersion of ligand-associated loaded sensors into a 1:50 dilution of folding buffer in mRNA display selection buffer. Fitted KD data was adjusted for concentration as determined by UPLC-CAD.
(§3) For accurate multi-concentration KD determination, dilution series of each peptide were made, and association and dissociation kinetics curves were obtained as above for each concentration to fit a multi-point KD binding model. Data collection and analysis was performed using the Octet Instrument Control […]
(§4) concentration assay kinetics curves shown in supplementary Figure S 19-24.

[3] = target: T3, FGF-R3C ECD (Homo sapiens, UniProt P22607); test: biochemical; set-up: DNA constructs for the extracellular domain (ECD) of human FGF-; HPC4 (C); made in house; host or cells: HEK 293-6E
T3 sequence (P22607 23-375 limits assumed): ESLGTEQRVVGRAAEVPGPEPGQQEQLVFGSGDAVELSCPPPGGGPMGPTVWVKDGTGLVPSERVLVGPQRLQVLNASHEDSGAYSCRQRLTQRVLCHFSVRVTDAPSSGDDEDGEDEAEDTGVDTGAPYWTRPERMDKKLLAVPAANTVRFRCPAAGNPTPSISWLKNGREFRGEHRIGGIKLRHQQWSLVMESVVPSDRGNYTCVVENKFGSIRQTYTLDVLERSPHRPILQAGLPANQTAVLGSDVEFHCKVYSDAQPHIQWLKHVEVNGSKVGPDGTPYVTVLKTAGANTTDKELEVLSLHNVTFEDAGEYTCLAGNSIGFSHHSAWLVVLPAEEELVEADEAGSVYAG
Description: as §1, §2, §3, §4

| Structure (SMILES) | Kd [1] | Kd [2] | Kd [3] |
| --- | --- | --- | --- |
| CSCC[C@H](NC(C)=O)C(=O)N[C@H]1CSSC[C@@H](C(=O)NCC(=O)N[C@@H](CO)C(=O)NCC(=O)N[C@@H](CO)C(=O)N[C@@H](CCC(=O)O)C(=O)N[C@@H](CCC(=O)O)C(=O)NCC(=O)N[C@@H](CO)C(=O)NCC(=O)N[C@@H](CO)C(=O)N[C@@H](CC(=O)O)C(=O)N[C@@H](Cc2ccc(O)cc2)C(=O)N[C@@H](CCCCN)C(=O)N[C@@H](CC(=O)O)C(=O)N[C@@H](CC(=O)O)C(=O)N[C@@H](CC(=O)O)C(=O)N[C@@H](CC(=O)O)C(=O)N[C@@H](CCCCN)C(N)=O)NC(=O)[C@H](Cc2ccccc2)NC(=O)[C@H](CCCCN)NC(=O)CNC(=O)[C@H](CCCCN)NC(=O)[C@H](Cc2c[nH]c3ccccc23)NC(=O)[C@H](CC(C)C)NC(=O)[C@H](CC(C)C)NC(=O)[C@H](Cc2ccccc2)NC(=O)[C@H](C)NC(=O)[C@H](CCCCN)NC(=O)[C@H](C)NC1=O (Ac-MCAKAFLLWKGKFCGSGSEEGSGSDYKDDDDK-NH2; disulfide 2-14) | > 10 µM | > 10 µM | > 10 µM |
| CSCC[C@H](NC(C)=O)C(=O)N[C@H]1CSSC[C@@H](C(=O)NCC(=O)N[C@@H](CO)C(=O)NCC(=O)N[C@@H](CO)C(=O)N[C@@H](CCC(=O)O)C(=O)N[C@@H](CCC(=O)O)C(=O)NCC(=O)N[C@@H](CO)C(=O)NCC(=O)N[C@@H](CO)C(=O)N[C@@H](CC(=O)O)C(=O)N[C@@H](Cc2ccc(O)cc2)C(=O)N[C@@H](CCCCN)C(=O)N[C@@H](CC(=O)O)C(=O)N[C@@H](CC(=O)O)C(=O)N[C@@H](CC(=O)O)C(=O)N[C@@H](CC(=O)O)C(=O)N[C@@H](CCCCN)C(N)=O)NC(=O)[C@H](CCCNC(=N)N)NC(=O)[C@H](CO)NC(=O)[C@H](Cc2c[nH]cn2)NC(=O)[C@H](CCCCN)NC(=O)[C@H](CC(C)C)NC(=O)[C@H](Cc2c[nH]c3ccccc23)NC(=O)[C@H](CC(C)C)NC(=O)[C@H](CCCCN)NC(=O)[C@H](Cc2ccc(O)cc2)NC(=O)[C@H](Cc2ccc(O)cc2)NC(=O)[C@H](C(C)C)NC(=O)[C@H](C)NC1=O (Ac-MCAVYYKLWLKHSRCGSGSEEGSGSDYKDDDDK-NH2; disulfide 2-15) | 0.007 µM | > 10 µM |  |
| CC[C@H](C)[C@@H]1NC(=O)[C@H](Cc2c[nH]cn2)NC(=O)[C@@H](NC(=O)[C@H](CCSC)NC(C)=O)CSSC[C@@H](C(=O)NCC(=O)N[C@@H](CO)C(=O)NCC(=O)N[C@@H](CO)C(=O)N[C@@H](CC(=O)O)C(=O)N[C@@H](Cc2ccc(O)cc2)C(=O)N[C@@H](CCCCN)C(=O)N[C@@H](CC(=O)O)C(=O)N[C@@H](CC(=O)O)C(=O)N[C@@H](CC(=O)O)C(=O)N[C@@H](CC(=O)O)C(=O)N[C@@H](CCCCN)C(N)=O)NC(=O)[C@H](C(C)C)NC(=O)[C@H](Cc2ccc(O)cc2)NC(=O)[C@H](Cc2c[nH]cn2)NC(=O)[C@H](Cc2ccccc2)NC(=O)[C@H](CCC(N)=O)NC(=O)[C@H](CC(N)=O)NC(=O)[C@H](CC(N)=O)NC(=O)[C@H](Cc2ccccc2)NC(=O)[C@H](Cc2ccc(O)cc2)NC(=O)[C@H](Cc2c[nH]c3ccccc23)NC1=O (Ac-MCHIWYFNNQFHYVCGSGSDYKDDDDK-NH2; disulfide 2-15) | 0.006 µM | > 10 µM |  |
| CC[C@H](C)[C@@H]1NC(=O)[C@H](Cc2c[nH]cn2)NC(=O)[C@H](CCCNC(=N)N)NC(=O)[C@H](CCCCN)NC(=O)[C@@H](NC(=O)[C@H](CCSC)NC(C)=O)CSSC[C@@H](C(=O)NCC(=O)N[C@@H](CO)C(=O)NCC(=O)N[C@@H](CO)C(=O)N[C@@H](CCC(=O)O)C(=O)N[C@@H](CCC(=O)O)C(=O)NCC(=O)N[C@@H](CO)C(=O)NCC(=O)N[C@@H](CO)C(=O)N[C@@H](CC(=O)O)C(=O)N[C@@H](Cc2ccc(O)cc2)C(=O)N[C@@H](CCCCN)C(=O)N[C@@H](CC(=O)O)C(=O)N[C@@H](CC(=O)O)C(=O)N[C@@H](CC(=O)O)C(=O)N[C@@H](CC(=O)O)C(=O)N[C@@H](CCCCN)C(N)=O)NC(=O)[C@H](C(C)C)NC(=O)[C@H](Cc2ccc(O)cc2)NC(=O)[C@H](CC(C)C)NC(=O)[C@H](CCC(N)=O)NC(=O)[C@H](Cc2c[nH]c3ccccc23)NC(=O)[C@H](Cc2ccc(O)cc2)NC(=O)[C@H](CCCNC(=N)N)NC1=O (Ac-MCKRHIRYWQLYVCGSGSEEGSGSDYKDDDDK-NH2; disulfide 2-14) |  | 0.265 µM | 0.838 µM |
| CC[C@H](C)[C@@H]1NC(=O)[C@H](CCC(=O)O)NC(=O)[C@H](CCCNC(=N)N)NC(=O)[C@@H](NC(=O)[C@H](CCSC)NC(C)=O)CSSC[C@@H](C(=O)NCC(=O)N[C@@H](CO)C(=O)NCC(=O)N[C@@H](CO)C(=O)N[C@@H](CC(=O)O)C(=O)N[C@@H](Cc2ccc(O)cc2)C(=O)N[C@@H](CCCCN)C(=O)N[C@@H](CC(=O)O)C(=O)N[C@@H](CC(=O)O)C(=O)N[C@@H](CC(=O)O)C(=O)N[C@@H](CC(=O)O)C(=O)N[C@@H](CCCCN)C(N)=O)NC(=O)[C@H](Cc2ccccc2)NC(=O)[C@H](C)NC(=O)[C@H](CCCNC(=N)N)NC(=O)[C@H](Cc2ccc(O)cc2)NC(=O)[C@H](CC(C)C)NC(=O)[C@H](CCC(N)=O)NC(=O)[C@H](Cc2c[nH]c3ccccc23)NC(=O)[C@H](Cc2ccc(O)cc2)NC(=O)[C@H](CCCNC(=N)N)NC1=O (Ac-MCREIRYWQLYRAFCGSGSDYKDDDDK-NH2; disulfide 2-15) |  | > 10 µM | > 10 µM |
| CC[C@H](C)[C@@H]1NC(=O)[C@H](CCC(=O)O)NC(=O)[C@H](Cc2ccc(O)cc2)NC(=O)[C@@H](NC(=O)[C@H](CCSC)NC(C)=O)CSSC[C@@H](C(=O)NCC(=O)N[C@@H](CO)C(=O)NCC(=O)N[C@@H](CO)C(=O)N[C@@H](CC(=O)O)C(=O)N[C@@H](Cc2ccc(O)cc2)C(=O)N[C@@H](CCCCN)C(=O)N[C@@H](CC(=O)O)C(=O)N[C@@H](CC(=O)O)C(=O)N[C@@H](CC(=O)O)C(=O)N[C@@H](CC(=O)O)C(=O)N[C@@H](CCCCN)C(N)=O)NC(=O)[C@H](C(C)C)NC(=O)[C@H](CCCNC(=N)N)NC(=O)[C@H](CCC(N)=O)NC(=O)[C@H](CC(C)C)NC(=O)[C@H](CCCCN)NC(=O)[C@H](Cc2ccc(O)cc2)NC(=O)[C@H](Cc2c[nH]c3ccccc23)NC(=O)[C@H]([C@@H](C)CC)NC1=O (Ac-MCYEIIWYKLQRVCGSGSDYKDDDDK-NH2; disulfide 2-14) |  | > 10 µM | > 10 µM |
| CC[C@H](C)[C@@H]1NC(=O)CNC(=O)[C@H]([C@@H](C)O)NC(=O)[C@H](CO)NC(=O)[C@H]([C@@H](C)CC)NC(=O)[C@H](CC(N)=O)NC(=O)[C@H](CCCCN)NC(=O)[C@H](Cc2ccc(O)cc2)NC(=O)[C@@H](NC(=O)[C@H](CCSC)NC(C)=O)CSSC[C@@H](C(=O)NCC(=O)N[C@@H](CO)C(=O)NCC(=O)N[C@@H](CO)C(=O)N[C@@H](CC(=O)O)C(=O)N[C@@H](Cc2ccc(O)cc2)C(=O)N[C@@H](CCCCN)C(=O)N[C@@H](CC(=O)O)C(=O)N[C@@H](CC(=O)O)C(=O)N[C@@H](CC(=O)O)C(=O)N[C@@H](CC(=O)O)C(=O)N[C@@H](CCCCN)C(N)=O)NC(=O)[C@H](Cc2ccc(O)cc2)NC(=O)[C@H](CC(C)C)NC(=O)[C@H](Cc2ccccc2)NC1=O (Ac-MCYKNISTGIFLYCGSGSDYKDDDDK-NH2; disulfide 2-14) |  | > 10 µM | > 10 µM |
